Data from patent publication US20130017272A1, “METHOD FOR TREATING NON-SMALL CELL LUNG CANCER” (priority 2011, published 2013).
Read-outs that look alike come from different tables or passages of the source. Strand notation (5' to 3'): a small letter for the sugar, then the base; units joined by * are phosphorothioate-linked, units joined directly phosphodiester-linked; [ ] holds rarer units or linkages, { } end groups; capitals alone tell only the bases. e = 2'-O-(2-methoxyethyl) (MOE); [5mC] = 5-methylcytosine; d = 2'-deoxy (DNA)

Experiments:
[1] = test system: cancerous human prostate, breast, ovarian, lung, renal, bladder, and melanoma cells; details: broad range of studies (Miyake et al. 2005); cited from earlier work
stage IIIB or IV NSCLC = test: Phase 1-2 study of weekly custirsen plus a gemcitabine/platinum-based regimen: survival by baseline serum clusterin; assay type: in vivo, human
Experimental: The relationship between serum clusterin levels and the duration of individual survival was evaluated during a phase 1-2 study of weekly custirsen plus a gemcitabine/platinum-based regimen in patients with stage IIIB or IV NSCLC. Not all of the patients in this study had baseline levels of clusterin measured. However, starting with N=69 subjects with measured baseline clusterin levels, fitting the Cox proportional hazards (PH) model with baseline clusterin as sole predictor gives p=0.10; the coefficient is positive, so that higher clusterin is associated with increased survival risk. Among the N=55 subjects who also had post-baseline data collected, fitting the same PH model gives p=0.05, again with positive coefficient.
A careful search for possible cutpoints, using all N=69 subjects with baseline clusterin levels, produced 71 μg/mL as a strong candidate.
Among all N=69 subjects with a baseline clusterin level, there were […] with clusterin ≦71 μg/mL (median survival time was 18.8 months), and N=26 subjects with baseline clusterin >71 μg/mL (median survival time was 10.2 months); the log-rank p-value=0.004. Removing the N=14 early discontinuers leaves N=35 subjects with baseline clusterin ≦71 μg/mL (median survival time was 28.7 months), and N=20 subjects with baseline clusterin >71 μg/mL (median survival time was 12.2 months); the log-rank p-value=0.0002.

[2] = in vivo
Experimental: Three doses of 640 mg custirsen are administered IV during the Loading Dose Period (Days −9 to −1). There is at least one “non-infusion” day between each administration of custirsen (i.e. every other day) during the Loading Dose Period and between the third loading dose of custirsen and Day 1 of Cycle 1. The day prior to Day 1 of Cycle 1 (Day 0) is a “no treatment” day. There are no more than 4 days between the last loading dose and Day 1 of Cycle 1. A common schedule is to give the three loading doses of custirsen on Monday, Wednesday and Friday with Day 1, Cycle 1 starting on the following Monday. Up to nine days are allowed for completing the three loading doses prior to Day 0 to account for clinic visits, weekends, and holidays. Subjects receive each dose of custirsen as a 2 hour infusion.

clusterin = details: broad range of studies (Miyake et al. 2005); cited from earlier work
[3] = cited from earlier work
CYP3A4 = CYP3A4 (Homo sapiens, UniProt P08684); details: cited from earlier work
NSCLC = details: 2nd line setting, from reports; cited from earlier work

CYP3A4, sequence (P08684 whole entry): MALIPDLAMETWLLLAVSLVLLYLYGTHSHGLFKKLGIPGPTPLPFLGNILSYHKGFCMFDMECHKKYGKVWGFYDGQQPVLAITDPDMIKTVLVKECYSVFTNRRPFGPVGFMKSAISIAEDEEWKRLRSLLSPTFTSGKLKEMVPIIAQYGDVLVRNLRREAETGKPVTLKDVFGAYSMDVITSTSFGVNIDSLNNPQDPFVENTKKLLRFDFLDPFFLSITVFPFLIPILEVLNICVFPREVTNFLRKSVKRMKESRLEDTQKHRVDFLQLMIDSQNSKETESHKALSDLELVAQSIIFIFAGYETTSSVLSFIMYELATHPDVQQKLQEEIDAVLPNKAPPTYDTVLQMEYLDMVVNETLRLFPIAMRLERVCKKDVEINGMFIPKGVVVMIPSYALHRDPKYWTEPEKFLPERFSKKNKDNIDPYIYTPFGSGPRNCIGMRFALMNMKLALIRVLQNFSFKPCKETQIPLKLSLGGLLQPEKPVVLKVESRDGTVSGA

Compound	sensitization of cancer cells to chemotherapy [1]	median survival time (stage IIIB or IV NSCLC; baseline clusterin >71 μg/mL, N=20, early discontinuers removed)	median survival time (stage IIIB or IV NSCLC; baseline clusterin >71 μg/mL, N=26 of all N=69 subjects)	median survival time (stage IIIB or IV NSCLC; baseline clusterin ≦71 μg/mL, N=35, early discontinuers removed)	median survival time (stage IIIB or IV NSCLC; baseline clusterin ≦71 μg/mL, N=45 of all N=69 subjects)	subjects with grade 1-2 constitutional symptoms (e.g., fever and chills) [2]	expression of clusterin (clusterin)	patients with grade 4 neutropenia (<500 cells/mm^3) ([3]; 60 mg/m^2)	patients with grade 4 neutropenia (<500 cells/mm^3) ([3]; 100 mg/m^2)	patients with neutropenia (<2,000 neutrophils/mm^3) ([3]; 60-100 mg/m^2)	CYP3A4 substrate (CYP3A4)	median PFS (NSCLC)
custirsen: anti-clusterin antisense oligonucleotide CAGCAGCAGAGTCTTCATCAT, phosphorothioate backbone, 2′-O-methoxyethyl at nucleotides 1-4 and 18-21, 5-methylcytosines at 1, 4, 19 (antisense e[5mC]*eA*eG*e[5mC]*dA*dG*dC*dA*dG*dA*dG*dT*dC*dT*dT*dC*dA*eT*e[5mC]*eA*eT; listed as Homo sapiens)	sensitizes	12.2 months	10.2 months	28.7 months	18.8 months	50-60%	potently reduces					
CC(=O)O[C@@]12CO[C@@H]1C[C@H](O)[C@@]1(C)C(=O)[C@H](O)C3=C(C)[C@@H](OC(=O)[C@H](O)[C@@H](NC(=O)OC(C)(C)C)c4ccccc4)C[C@@](O)([C@@H](OC(=O)c4ccccc4)[C@H]21)C3(C)C [Docetaxel]								75%	85%	virtually all	substrate	about 3 months
